In PubChem BioAssay (NCI):
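Each compound was tested at five concentrations against cells in 96-well plates for 48 hours. Abbreviation: GI50, concentration required for 50% inhibition of growth. TGI: concentration producing complete growth inhibition.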

How the values were obtained:
Assay in all cases: growth of human tumour cells (NCI), 48 h
HCC-2998 colon = system: HCC-2998 colon
HCT-15 colon = system: HCT-15 colon
HS 578T breast = system: HS 578T breast
HT29 colon = system: HT29 colon
M14 melanoma = system: M14 melanoma
OVCAR-4 ovarian = system: OVCAR-4 ovarian
RPMI-8226 leukemia = system: RPMI-8226 leukemia
SF-295 CNS = system: SF-295 CNS
SK-MEL-2 melanoma = system: SK-MEL-2 melanoma
HCT-116 colon = system: HCT-116 colon

| Structure (SMILES) | GI50 (HCC-2998 colon) [µM] | TGI (HCC-2998 colon) [µM] | GI50 (HCT-15 colon) [µM] | TGI (HCT-15 colon) [µM] | GI50 (HS 578T breast) [µM] | TGI (HS 578T breast) [µM] | GI50 (HT29 colon) [µM] | TGI (HT29 colon) [µM] | GI50 (M14 melanoma) [µM] | TGI (M14 melanoma) [µM] | GI50 (OVCAR-4 ovarian) [µM] | TGI (OVCAR-4 ovarian) [µM] | GI50 (RPMI-8226 leukemia) [µM] | TGI (RPMI-8226 leukemia) [µM] | GI50 (SF-295 CNS) [µM] | TGI (SF-295 CNS) [µM] | GI50 (SK-MEL-2 melanoma) [µM] | TGI (SK-MEL-2 melanoma) [µM] | GI50 (HCT-116 colon) [µM] | TGI (HCT-116 colon) [µM] |
| --- | --- | --- | --- | --- | --- | --- | --- | --- | --- | --- | --- | --- | --- | --- | --- | --- | --- | --- | --- | --- |
| O=C(Nc1ccc(F)cc1)Nc1ccccc1CNc1nc(Nc2ccc(OCCN3CCCC3)cc2)ncc1Cl | 2.73 | 9.27 | 1.58 | 6.06 | 0.99 | 2.58 | 1.49 | 50 | 0.946 | 2 | 1.11 | 2.93 | 1.4 | 3.72 | 1.97 | 7.67 | 8.7 | 18.4 |  |  |
| CC/C(=C(/c1ccc(OCCN(C)C)cc1)c1ccc(OC(=O)CCC(=O)c2c(C)[nH]c(/C=C3\N=C(c4ccc[nH]4)C=C3OC)c2C)cc1)c1ccccc1 | 3.72 | 13.4 | 0.934 | 4.48 | 1.15 | 4.72 | 0.438 | 11.1 | 2.06 | 4.92 | 1.49 | 14.8 | 1.57 | 5.58 | 2.61 | 9.06 | 2.42 | 6.2 | 0.792 | 3.26 |
| CC(C)Nc1ccc(Nc2ccccc2)cc1 | 25.3 | > 100 | 21.5 | 77 | 38.3 | > 100 | 17 | 48.4 | 14.9 | 33 |  |  | 3.68 | 19.5 |  |  | 25.6 | 66.3 | 14.1 | 31.4 |
| Nc1cc(C(=O)O)[nH]c(=O)n1 |  | > 100 |  | > 100 |  | > 100 |  | > 100 |  | > 100 |  | > 100 |  | > 100 |  | > 100 |  | > 100 |  | > 100 |
| Cn1cc(C2=C(c3cccc(N)c3)C(=O)NC2=O)c2ccccc21 | > 25 | > 25 | 12.8 | > 25 | 1.34 | > 25 | 13.1 | > 25 | > 25 | > 25 | > 25 | > 25 | > 21.4 | > 25 | 3.93 | > 25 | 14.3 | > 25 | 7.94 | > 25 |
| CCCc1cc(O)c2c3c(c(=O)oc2c1)CN(C)CC3 | 30.7 | 69.7 | 39.9 | > 100 | 41.3 | > 100 | 39.5 | > 100 | 32.5 | > 100 | 82.8 | > 100 | 24.2 | 91.2 | 28.3 | > 100 | > 100 | > 100 | 66.8 | > 100 |
| C#CCN(Cc1nc2cc(C(F)(F)F)ccc2nc1-c1ccccc1)c1ccc(OC(F)(F)F)cc1 | 30.3 | 91.9 | > 100 | > 100 | > 100 | > 100 | 40.3 | > 100 | 50.3 | > 100 | > 100 | > 100 | 23.3 | > 100 | > 100 | > 100 | > 100 | > 100 | 25 | > 100 |
| CC(=O)N1N=C(c2ccc(Nc3nc(Nc4ccc(Cl)cc4)nc(Nc4ccc(Cl)cc4)n3)cc2)CC1c1ccc([N+](=O)[O-])cc1 (stereo not given) | 19.3 | > 80.1 | 4.11 | > 94.3 | 7.7 | 97.7 | 4.74 | > 95 | 6.8 | 43.4 | 3.85 | > 100 | 3.61 | 42.4 | 1.87 | 13.6 | 5.38 | > 45.6 | 3.24 | 34.8 |
| CCCCCCc1cc2cc(-c3nc4ccccc4[nH]3)c(=Nc3ccccc3C)oc2cc1O | 22.2 | > 77.3 | 2.17 | 5.34 | 2.37 | 6.71 | > 100 | > 100 | 1.85 | 3.6 | 1.69 | 3.37 | 2.47 | 7.86 | 4.24 | 17.8 | 2.75 | 6.61 | 1.83 | 3.63 |
| COC(=O)C1=C(C)NC(C)=C(C(=O)OC)C1/C=C(\Cl)c1ccc(Cl)c(Cl)c1 | 17.3 | 31.1 | 12.3 | 26.9 | 12.2 | 33.4 | 4.51 | 18.5 | 16.6 | 30.2 | 10.8 | 26.6 | 1.8 | 13.7 | 6.26 | 21.6 |  |  | 12.2 | 24.6 |
| Cc1ccc(NC(=O)Cc2ccc(/C=C/C(=O)c3ncc[nH]3)cc2)cc1 | 6.73 | > 25 | 2.01 | 15.6 | 13.6 | > 25 | 0.955 | 5.09 |  |  | 10.4 | > 25 | 1.79 | 11.8 | 7.9 | > 25 | 18.1 | > 25 | 3.28 | 9.59 |
| CCOC(=O)/C(=N\OC)C(O)C(F)(F)F (stereo not given) |  | > 100 |  | > 100 |  | > 100 |  | > 100 |  | > 100 |  |  |  | > 100 |  | > 100 |  | > 100 |  | > 100 |
| Clc1cc2c(cc1Cl)Oc1cc(Cl)c(Cl)cc1O2 | > 0.625 | > 0.625 | > 0.625 | > 0.625 | > 0.625 | > 0.625 | > 0.625 | > 0.625 | > 0.625 | > 0.625 | > 0.625 | > 0.625 | > 0.625 | > 0.625 |  |  | > 0.625 | > 0.625 | > 0.625 | > 0.625 |
| C=C(C)C1Cc2c(cc(OC)c3c(=O)c4cccc(O)c4oc23)O1 (stereo not given) |  | > 100 |  | > 100 |  | 49.3 |  | > 100 |  | 50.8 |  | 42.4 |  |  |  | 41.6 |  | 42.4 |  | 39.4 |
| Cc1cc(Cl)cc2c(N=Nc3ccccc3[N+](=O)[O-])c(O)[nH]c12 |  | > 100 |  | > 100 |  | > 100 |  |  |  | > 100 |  | > 100 |  | > 100 |  | > 100 |  | > 100 |  | > 100 |
| Nc1ncnc2c1ncn2Cc1ccc(C23CC4CC(CC(C4)C2)C3)c(OCc2cc(F)c(F)cc2F)c1 | 6.26 | 57.8 | 4.92 | > 100 | 52 | > 100 | 12 | > 100 |  |  | 90.8 | > 100 |  |  | 6.29 | > 100 | > 100 | > 100 | 3.08 | 13.2 |
| CS(=O)(=O)OCC1OC(n2ccc(NC(=O)c3ccccc3)nc2=O)CC1OS(C)(=O)=O (stereo not given) |  |  |  | > 100 |  | > 100 |  | > 100 |  | > 100 |  | > 100 |  | > 100 |  | > 100 |  | > 100 |  | > 100 |
| Cc1nc(-c2ccccc2)c(Cc2ccccc2O)c(=O)[nH]1 |  |  |  | > 100 |  | > 100 |  | > 100 |  | > 100 |  | > 100 |  | > 100 |  | > 100 |  | > 100 |  | > 100 |
| Cc1cc(NCCCNc2ccnc3cc(Cl)ccc23)nc(N2CCN(C)CC2)n1 | 2.36 | 11.1 | 3.29 | 22.8 | 12.4 | 36.9 | 1.33 | 13.5 | 1.94 | 3.61 | 4.03 | 44.5 | 2.56 | 7.45 | 3.51 | 12.3 |  |  | 2.22 | 13 |
| COc1cc2c(cc1OCCCCCOc1cc3c(cc1OC)C(=O)N1CC(F)C[C@H]1C=N3)N=C[C@@H]1CC(F)CN1C2=O (stereo not given in full) | 0.229 | 2.89 | 1.11 | 3.72 | 0.0581 | 0.246 | 0.246 | > 58.6 | 0.0275 | 0.272 | 1.29 | 24.1 | < 0.0151 | 0.0622 | < 0.0148 | 0.694 | 0.279 |  |  |  |
| CC(C)c1c(C(=O)Nc2ccccc2)c(-c2ccccc2)c(-c2ccc(F)cc2)n1CC[C@@H]1CC=CC(=O)O1 | 1.92 | 3.5 | 1.88 | 3.85 | 2.14 | 6.05 | 1.62 | 3.66 | 1 | 2.48 |  |  | 0.285 | 1.17 | 3.28 | 13.6 | 1.87 | 3.43 | 0.278 | 1.23 |
| O=C(CCC(=O)Nc1cccc(Cl)c1)CC(=O)c1ccc(F)cc1 |  | > 100 |  | > 100 |  |  |  | > 100 |  | > 100 |  | > 100 |  | > 100 |  | 61.2 |  | > 100 |  | > 100 |
| CC(C)(O)C#Cc1ccc(/C=C/C(=O)c2ccccc2)s1 | 16.6 | 30.7 | 15.7 | 30.8 | 25.5 | 79.7 | 13.5 | 29.9 |  |  | 17.1 | 39 | 3.07 | 11.5 | 17.7 | 35.5 | 17.6 | 33.9 | 4.08 | 15.4 |
| COc1cc2c(cc1O)-c1c(cnn1-c1ccc([N+](=O)[O-])cc1)CCC2 |  |  |  | 30.5 |  | 81.8 |  | 35.6 |  | 49.6 |  | > 100 |  | 16.6 |  | 82.5 |  | 37.4 |  | 71.4 |
| COc1cc(-c2nc3sccn3c2-c2ccnc(NCCNS(=O)(=O)c3ccc(Cl)cc3)n2)ccc1F | 5.82 | > 100 | 3.33 | > 100 | 8.05 | > 100 | 4.28 | > 100 | 3.62 | > 100 | 3.72 | > 100 |  |  | 4.07 | > 100 | 3.46 | 35.3 | 3.56 | > 100 |
| COc1cc2c3c(n(CCCN(CCN)CCCn4c5c(c6cc(OC)c(OC)cc6c4=O)C(=O)c4cc6c(cc4-5)OCO6)c(=O)c2cc1OC)-c1cc2c(cc1C3=O)OCO2 | 0.407 | 5.98 | 8.43 | > 100 | 12.6 | > 100 | 2.52 | > 37 | 0.752 | 18.3 | 13.3 | > 83.8 |  |  | 0.36 | 6.16 | 21.1 | > 100 | 0.837 | 3.25 |
| O=S(=O)(N/N=C/c1ccc(Cl)c(Cl)c1)c1ccccc1 |  | > 100 |  | > 100 |  |  |  | > 100 |  | > 100 |  | > 100 |  | > 100 |  | > 100 |  | > 100 |  | > 100 |
| CCN1/C(=C/C=C/c2n(-c3ccccc3)c3ccc(-c4nc5ccccc5s4)cc3[n+]2CC)N(c2ccccc2)c2ccc(-c3nc4ccccc4s3)cc21 | 1.69 | > 31.1 | 1 | > 50 | 0.284 | > 50 | 0.333 | > 50 | 0.437 | 4.62 | 0.765 | > 50 | 0.303 | > 50 |  |  | 0.89 | 2.85 | 0.436 | > 50 |
| Nc1nc(N)c(Cn2ccnc2)c(=O)[nH]1 |  |  |  | > 100 |  | > 100 |  | > 100 |  | > 100 |  | > 100 |  | > 100 |  | > 100 |  | > 100 |  | > 100 |
